Measurements reported in patent US6670446B1, “N1 modified glycopeptides” (Eli Lilly and Company, priority 1998, dated 2003).

Tests used:
Format in all cases: cell-based
[1] = tested on: Resistant Enterococcus faecium and faecalis; test: MIC, standard broth micro-dilution assay, Resistant; details: geometric mean of 4-6 isolates
Description: (§1) The antibacterial efficacy of the present compounds is illustrated by Table III. The minimal inhibitory concentrations (MICs) were determined using a standard broth micro-dilution assay.

[2] = tested on: Sensitive Enterococcus faecium and faecalis; test: MIC, standard broth micro-dilution assay, Sensitive; details: geometric mean of 4-6 isolates
Description: as §1

[3] = tested on: Staphylococcus aureus 446; test: MIC, standard broth micro-dilution assay, SA 446
Description: as §1

[4] = tested on: Staphylococcus aureus 489; test: MIC, standard broth micro-dilution assay, SA 489
Description: as §1

[5] = tested on: Staphylococcus aureus 447; test: MIC, standard broth micro-dilution assay, SA 447
Description: as §1

[6] = tested on: Staphylococcus aureus X400; test: MIC, standard broth micro-dilution assay, SA X400
Description: as §1

[7] = tested on: Staphylococcus aureus X778; test: MIC, standard broth micro-dilution assay, SA X778
Description: as §1

[8] = tested on: Staphylococcus aureus 491; test: MIC, standard broth micro-dilution assay, SA 491
Description: as §1

[9] = tested on: Staphylococcus aureus S13E
Description: as §1

[10] = tested on: Staphylococcus aureus SA1199; test: MIC, standard broth micro-dilution assay, SA 1199
Description: as §1

[11] = tested on: Staphylococcus aureus SA1199A; test: MIC, standard broth micro-dilution assay, SA 1199A
Description: as §1

[12] = tested on: Staphylococcus haemolyticus 105; test: MIC, standard broth micro-dilution assay, SH 105
Description: as §1

[13] = tested on: Staphylococcus haemolyticus 415; test: MIC, standard broth micro-dilution assay, SH 415
Description: as §1

[14] = tested on: Staphylococcus epidermidis 270; test: MIC, standard broth micro-dilution assay, SE 270
Description: as §1

[15] = tested on: Enterococcus faecium 180; test: MIC, standard broth micro-dilution assay, EF 180
Description: as §1

[16] = tested on: Enterococcus faecium 180-1; test: MIC, standard broth micro-dilution assay, EF 180-1
Description: as §1

[17] = tested on: Enterococcus faecalis 2041; test: MIC, standard broth micro-dilution assay, EF 2041
Description: as §1

[18] = tested on: Enterococcus faecalis 276; test: MIC, standard broth micro-dilution assay, EF 276
Description: as §1

[19] = tested on: Enterococcus gallinarum 245; test: MIC, standard broth micro-dilution assay, EG 245
Description: as §1

[20] = tested on: Haemophilus influenzae RD; test: MIC, standard broth micro-dilution assay, HFRD
Description: as §1

[21] = tested on: Escherichia coli EC14; test: MIC, standard broth micro-dilution assay, EC 14
Description: as §1

Structure (SMILES)	minimal inhibitory concentration (MIC), Resistant [1]	minimal inhibitory concentration (MIC), Sensitive [2]	minimal inhibitory concentration (MIC), SA 446 [3]	minimal inhibitory concentration (MIC), SA 489 [4]	minimal inhibitory concentration (MIC), SA 447 [5]	minimal inhibitory concentration (MIC), SA X400 [6]	minimal inhibitory concentration (MIC), SA X778 [7]	minimal inhibitory concentration (MIC), SA 491 [8]	minimal inhibitory concentration (MIC), SA S13E [9]	minimal inhibitory concentration (MIC), SA 1199 [10]	minimal inhibitory concentration (MIC), SA 1199A [11]	minimal inhibitory concentration (MIC), SH 105 [12]	minimal inhibitory concentration (MIC), SH 415 [13]	minimal inhibitory concentration (MIC), SE 270 [14]	minimal inhibitory concentration (MIC), EF 180 [15]	minimal inhibitory concentration (MIC), EF 180-1 [16]	minimal inhibitory concentration (MIC), EF 2041 [17]	minimal inhibitory concentration (MIC), EF 276 [18]	minimal inhibitory concentration (MIC), EG 245 [19]	minimal inhibitory concentration (MIC), EC 14 [21]	further results
CC(C)C(C(=O)NC1C(=O)NC(CC(N)=O)C(=O)NC2C(=O)NC3C(=O)NC(C(=O)NC(C(=O)O)c4cc(O)cc(O)c4-c4cc3ccc4O)C(OC3CC(C)(N)C(O)C(C)O3)c3ccc(c(Cl)c3)Oc3cc2cc(c3OC2OC(CO)C(O)C(O)C2OC2CC(C)(N)C(O)C(C)O2)Oc2ccc(cc2Cl)C1O)N(C)C(=O)OC(C)(C)C [Example 41, N^1-(N-BOC-N-methyl-D-valine) derivative of desleucylA82846B]	>128	84	32	16	32	16	8	4	16	16	8	16	64	8	>64	4	8	8	>64	>64	minimal inhibitory concentration (MIC), HFRD [20]: no
CC1OC(OC2c3ccc(c(Cl)c3)Oc3cc4cc(c3OC3OC(CO)C(O)C(O)C3OC3CC(C)(NCc5ccc(-c6ccc(Cl)cc6)cc5)C(O)C(C)O3)Oc3ccc(cc3Cl)C(O)C(NC(=O)CCCCCCNC(=O)OC(C)(C)C)C(=O)NC(CC(N)=O)C(=O)NC4C(=O)NC3C(=O)NC2C(=O)NC(C(=O)O)c2cc(O)cc(O)c2-c2cc3ccc2O)CC(C)(N)C1O (centres unmarked) [Example 9, N^1- [7-(tert-butoxycarboxamido)-n-heptanoyl]-N^DISACC-[p-(p-chlorophenyl)benzyl]desleucylA82846B]	4.8	0.66	2	1	2	2	1	1	1	1	0.25	0.5	1	1	2	0.5	0.5	1	1	>64	minimal inhibitory concentration (MIC), HFRD [20]: >64
CC1OC(OC2c3ccc(c(Cl)c3)Oc3cc4cc(c3OC3OC(CO)C(O)C(O)C3OC3CC(C)(NCc5ccc(-c6ccccc6)cc5)C(O)C(C)O3)Oc3ccc(cc3Cl)C(O)C(NC(=O)C(Cc3ccc(Cl)cc3)NC(=O)OC(C)(C)C)C(=O)NC(CC(N)=O)C(=O)NC4C(=O)NC3C(=O)NC2C(=O)NC(C(=O)O)c2cc(O)cc(O)c2-c2cc3ccc2O)CC(C)(N)C1O [Example 28, N^1-[N-BOC-L-3-(p-chlorophenyl)alanine] derivative of N^DISACC-(p-phenylbenzyl)desleucylA82846B]	13	1.7	4	1	2	2	1	2	2	2	1	2	4	1	2	0.5	2	1	2	>64	minimal inhibitory concentration (MIC), HFRD [20]: >64
CC(C)CC(N)C(=O)NC1C(=O)NC(CC(N)=O)C(=O)NC2C(=O)NC3C(=O)NC(C(=O)NC(C(=O)O)c4cc(O)cc(O)c4-c4cc3ccc4O)C(OC3CC(C)(N)C(O)C(C)O3)c3ccc(c(Cl)c3)Oc3cc2cc(c3OC2OC(CO)C(O)C(O)C2OC2CC(C)(NCc3ccc(-c4ccccc4)cc3)C(O)C(C)O2)Oc2ccc(cc2Cl)C1O [Example 13, N^1-D-leucine derivative of N^DISACC-(p-phenylbenzyl)desleucylA82846B]	2.4	0.095	1	0.5	1	0.5	1	1	0.5	1	0.25	1	0.5	0.25	0.25	≦.06	≦.06	0.5	≦.06	>64	minimal inhibitory concentration (MIC), HFRD [20]: 16
CC1OC(OC2c3ccc(c(Cl)c3)Oc3cc4cc(c3OC3OC(CO)C(O)C(O)C3OC3CC(C)(NCc5ccc(-c6ccc(Cl)cc6)cc5)C(O)C(C)O3)Oc3ccc(cc3Cl)C(O)C(NC(=O)CCCCCCN)C(=O)NC(CC(N)=O)C(=O)NC4C(=O)NC3C(=O)NC2C(=O)NC(C(=O)O)c2cc(O)cc(O)c2-c2cc3ccc2O)CC(C)(N)C1O (centres unmarked) [Example 10, N^1-(7-amino-n-heptanoyl)-N^DISACC-[p-(p-chlorophenyl)benzyl]desleucylA82846B]	5.7	0.57																			
CNC(C(=O)NC1C(=O)NC(CC(N)=O)C(=O)NC2C(=O)NC3C(=O)NC(C(=O)NC(C(=O)O)c4cc(O)cc(O)c4-c4cc3ccc4O)C(OC3CC(C)(N)C(O)C(C)O3)c3ccc(c(Cl)c3)Oc3cc2cc(c3OC2OC(CO)C(O)C(O)C2OC2CC(C)(N)C(O)C(C)O2)Oc2ccc(cc2Cl)C1O)C(C)C [Example 42, N^1-(N-methyl-D-valine) derivative of desleucylA82846B]	128	0.66	0.5	0.5	0.5	0.5	2	1	1			0.5	1	1	64					>64	
CC(C)C[C@@H](NC(=O)OC(C)(C)C)C(=O)N[C@H]1C(=O)N[C@@H](CC(N)=O)C(=O)N[C@H]2C(=O)N[C@H]3C(=O)NC(C(=O)N[C@H](C(=O)O)c4cc(O)cc(O)c4-c4cc3ccc4O)[C@H](OC3CC(C)(N)C(O)C(C)O3)c3ccc(c(Cl)c3)Oc3cc2cc(c3OC2OC(CO)C(O)C(O)C2OC2CC(C)(N)C(O)C(C)O2)Oc2ccc(cc2Cl)[C@H]1O (stereo partly drawn) [Example 14, N^1-(N-BOC-D-leucine) derivative of desleucylA82846B]	>128	6.1																			
CC1OC(OC2C(Oc3c4cc5cc3Oc3ccc(cc3Cl)[C@@H](O)[C@@H](NC(=O)[C@@H](CCCCNC(=O)OC(C)(C)C)NC(=O)OC(C)(C)C)C(=O)N[C@@H](CC(N)=O)C(=O)N[C@H]5C(=O)N[C@H]3C(=O)NC(C(=O)N[C@H](C(=O)O)c5cc(O)cc(O)c5-c5cc3ccc5O)[C@H](OC3CC(C)(N)C(O)C(C)O3)c3ccc(c(Cl)c3)O4)OC(CO)C(O)C2O)CC(C)(N)C1O (stereo partly drawn) [Example 16, N^1-(N,N′-DIBOC-D-lysine) derivative of desleucylA82846B]	>128	7																			
